# Source: PMC7261835, “New Brilliant Blue G Derivative as Pharmacological Tool in Retinal Surgery” (Frontiers in Pharmacology, 2020)
# Key:
# [1] = system: purinergic ionotropic P2X7 receptor; parameters: method as in Bartlett et al., 2014; details: ref Bartlett et al., 2014; cited from earlier work
# [2] = Ex vivo model of vitreoretinal surgery, dye quantification in ILM by HPLC; parameters: species or system swine; details: porcine eye ex vivo, 40 µl, 30 s
# Text: (§1) Ex vivo model of vitreoretinal surgery has been previously reported for evaluation of indocyanine green ILM staining properties ([Nakamura et al., 2003]). We carried out on swine eyes the same procedure previously reported on primates, with slight modifications. The following formulations have been tested in the ex vivo model of vitreoretinal surgery: Brilliant PeelTM (0.025% Brilliant Blue G BBG; Fluoron, Ulm, Germany); ILM-BlueTM (0.025% Brilliant Blue G; Dutch Ophthalmic Research Center (International) […], Italy); View-ILM® (0.03% methyl-Brilliant Blue […], Ponte San Nicolò-Padova, Italy); PBB® (0.05% Pure benzyl-Brilliant Blue G; Alfa-Instruments, Casoria, Italy). […] The levels of the dye molecules were quantified by means of HPLC analysis. […] The dried residue was reconstituted in 100 μl of mobile phase by vortexing for 120 s, filtered again on 0.45 μm filters, and, finally, 10-20 μl aliquots were injected into the chromatographic apparatus (each sample was analyzed in triplicate). […] BBG, Me-BBG, and PBB® were analyzed using three different isocratic ternary mobile phases consisting of (A) acetonitrile, (B) methanol, and (C) triethylamine 0.3% (v/v) in water (pH adjusted to 3.0 with trifluoroacetic acid) with different proportions (A:B:C) as follows: BBG 49:5:46 (v/v/v); Me-BBG 54:5:41 (v/v/v); PBB® 62:5:33 (v/v/v). […]
# [3] = Ex vivo model of vitreoretinal surgery, dye quantification in retina by HPLC; parameters: species or system swine; details: porcine eye ex vivo, 40 µl of 0.05% PBB formulation, removed after 30 s, after ILM peeling
# Text: as §1
# [4] = system: proteins (fibronectin proteolytic fragment 45 kDa, E. coli beta-galactosidase, bovine serum albumin, chicken ovalbumin, equine cytochrome C); experiment: Dye protein affinity assay: SDS-PAGE staining intensity, densitometry; format: binding; details: SDS-page protein bands, dyes 0.025% in fixative; compared to BBG and Me-BBG; p < 0.05
# Experimental: In order to have the same dye/protein molar ratio for dye protein affinity assay, a set of molecular weight standards was obtained by mixing 430 nmol of the following proteins: i. fibronectin proteolytic fragment 45 kDa; ii. E. coli beta-galactosidase 116.3 kDa; iii. bovine serum albumin 66.5 kDa; iv. chicken ovalbumin 42.7 kDa; v. equine cytochrome C 12.3 kDa. Polyacrylamide gel electrophoresis was carried out loading the molecular weight standard in a 9% precast gels (Biorad), as triplicates on separate lanes. Gel electrophoresis was carried out at 20V for 60–90 min in denaturing conditions. After runs, each lane was cut and soaked overnight in a different staining solution, consisting of dyes dissolved at 0.025% in gel fixative solution (40% methanol, 20% acetic acid). Thereafter, gel lanes were decolored in the fixative solution without dyes, until the background stain reached the minimum level compared to stained protein bands. Images were collected with a scanner at 300 dpi, 16M colors. Densitometric analysis was done using the software ImageJ ([Rueden et al., 2017]). LogD values (pH 7.4) were calculated in silico using ACD/Labs software (version 11.1 2008, ACD Labs). […]
fold increase of ILM dye levels compared to Me-BBG (View ILM) formulation ([2]; p < 0.05) [fold],dye levels in the retina [3] [ng/mg],Structure (SMILES),P2X7 receptor antagonism [1],dye content in ILM compared to Brilliant Peel formulation (BBG) [2],"Protein binding quantified as staining intensity (% staining, % of control BBG) [4]"
,,"CCOc1ccc(Nc2ccc(/C(=C3C=C/C(=[N+](/CC)Cc4cccc(S(=O)(=O)[O-])c4)C=C/3C)c3ccc(N(CC)Cc4cccc(S(=O)(=O)O)c4)cc3C)cc2)cc1 [Entry 1, Brilliant Blue G]",potent selective non-competitive antagonist,,
6.0,52,"CCOc1ccc(N(Cc2ccccc2)c2ccc(C(=C3C=CC(=[N+](CC)Cc4cccc(S(=O)(=O)[O-])c4)C=C3C)c3ccc(N(CC)Cc4cccc(S(=O)(=O)O)c4)cc3C)cc2)cc1 [Entry 7, pure benzyl-Brilliant Blue G]",,"higher, even though not statistical significant",higher protein affinity (% staining) compared to BBG and Me-BBG
